The term IC50 denotes the concentration that gives 50% inhibition.

One assay has as its system A2780cisR. The assay can be described thus: Ovarian carcinoma cytotoxicity assay. As to conditions: Homo sapiens, A2780cisR, 96 h, read-out: IC50 A2780cisR. The format is cell-based, human. The method, boiled down:
(§1)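 Cells attached overnight, then read 96 hours later by sulphorhodamine B staining of TCA-fixed cells, with absorbance at 540 nm. IC50 taken from concentration versus % absorbance relative to untreated wells; cisR lines are cisplatin-resistant.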

In another assay the test system is A2780. As to the kind of experiment: Ovarian carcinoma cytotoxicity assay. The format is cell-based, human. Conditions: Homo sapiens, A2780, 96 h, read-out: IC50 A2780. In outline:
as §1

Turning to `C=C1C[C@H]2C=Nc3cc(OCCCOc4cc5c(cc4OC)C(=O)N4CC(=C)C[C@H]4C=N5)c(OC)cc3C(=O)N2C1` [UP2001 (80)], the IC50 with A2780cisR was found to be 0.024 nM; with A2780, 0.023 nM.

The values above are taken from patent US7049311B1, “Pyrrolbenzodiazepines” (Spirogen Limited, priority 1998, dated 2006).
